Experimental data reported in ChEMBL document CHEMBL5678809, “Preclinical characterization of GLPG0634, a selective inhibitor of JAK1, for the treatment of inflammatory diseases” (J Immunol, 2013).
The source made the active and inactive calls. No cut-off for these calls is given here.

Columns and labels:
[1] = molecular target: Serine/threonine-protein kinase pim-1 (Homo sapiens) (UniProt P11309); test: Inhibition of Pim-1 (unknown origin) at 1 uM relative to control
[2] = molecular target: Interleukin-1 receptor-associated kinase 1 (Homo sapiens) (UniProt P51617); test: Inhibition of IRAK1 (unknown origin) at 1 uM relative to control
[3] = molecular target: Dual specificity tyrosine-phosphorylation-regulated kinase 2 (Homo sapiens) (UniProt Q92630); test: Inhibition of DYRK2 (unknown origin) at 1 uM relative to control
[4] = molecular target: Serine/threonine-protein kinase Nek6 (Homo sapiens) (UniProt Q9HC98); test: Inhibition of NEK6 (unknown origin) at 1 uM relative to control
[5] = molecular target: Muscle, skeletal receptor tyrosine-protein kinase (Homo sapiens) (UniProt O15146); test: Inhibition of MuSK (unknown origin) at 1 uM relative to control
[6] = molecular target: Focal adhesion kinase 1 (Homo sapiens) (UniProt Q05397); test: Inhibition of FAK (unknown origin) at 1 uM relative to control
[7] = molecular target: Serine/threonine-protein kinase haspin (Homo sapiens) (UniProt Q8TF76); test: Inhibition of Haspin (unknown origin) at 1 uM relative to control
Mus musculus [8] = test: Antiarthritic activity against collagen-induced arthritis DBA/1J mouse model assessed as reduction in MMP3 expression at 50 mg/kg, po measured for 4 hrs; type: functional, organism-based
[9] = molecular target: Tyrosine-protein kinase Lck (Homo sapiens, UniProt P06239); test: Inhibition of LCK (unknown origin)
[10] = molecular target: Angiopoietin-1 receptor (Homo sapiens) (UniProt Q02763); test: Inhibition of Tie2 (unknown origin) at 1 uM relative to control
[11] = molecular target: Tyrosine-protein kinase receptor UFO (Homo sapiens) (UniProt P30530); test: Inhibition of Axl (unknown origin) at 1 uM relative to control
Mus musculus [12] = test: Antiarthritic activity against collagen-induced arthritis DBA/1J mouse model assessed as KC/GRO level in serum at 50 mg/kg, po measured for 4 hrs by luminex analysis (reference value: 73.6 +/- 18.6 ng/ml); type: functional
[13] = molecular target: Serine/threonine-protein kinase WNK3 (Homo sapiens) (UniProt Q9BYP7); test: Inhibition of WNK3 (unknown origin) at 1 uM relative to control
[14] = molecular target: Tyrosine-protein kinase Fer (Homo sapiens) (UniProt P16591); test: Inhibition of Fer (unknown origin) at 1 uM relative to control
[15] = molecular target: SRSF protein kinase 1 (Homo sapiens) (UniProt Q96SB4); test: Inhibition of SRPK1 (unknown origin) at 1 uM relative to control
[16] = molecular target: Ribosomal protein S6 kinase alpha-3 (Homo sapiens) (UniProt P51812); test: Inhibition of Rsk2 (unknown origin) at 1 uM relative to control
[17] = molecular target: Homeodomain-interacting protein kinase 2 (Homo sapiens, UniProt Q9H2X6); test: Inhibition of HIPK2 (unknown origin)
Mus musculus [18] = test: Antiarthritic activity against collagen-induced arthritis DBA/1J mouse model assessed as M-CSF1 level in serum at 50 mg/kg, po measured for 4 hrs by luminex analysis (reference value: 11.1 +/- 1.3 ng/ml); type: functional
Mus musculus [19] = test: Antiarthritic activity against collagen-induced arthritis DBA/1J mouse model assessed as reduction in MX2 level in whole blood at 50 mg/kg, po measured for 2 weeks by luminex analysis; type: functional, organism-based
Rattus norvegicus [20] = test: Antiarthritic activity against collagen-induced arthritis Dark Agouti rat model assessed as reduction in bone degradation by measuring larsen score administered 3 times a week and measured on day 7 by X-ray analysis; type: functional, organism-based; conditions: dose 3.0 mg/kg, time 7.0 day
Misshapen-like kinase 1 = Misshapen-like kinase 1 (Homo sapiens, UniProt Q8N4C8); test: Inhibition of MINK (unknown origin)
[21] = molecular target: Serine/threonine-protein kinase 10 (Homo sapiens) (UniProt O94804); test: Inhibition of LOK (unknown origin) at 1 uM relative to control
Mus musculus [22] = test: Antiarthritic activity against collagen-induced arthritis DBA/1J mouse model assessed as MDC level in serum at 50 mg/kg, po measured for 4 hrs by luminex analysis (reference value: 463.8 +/- 32.7 ng/ml); type: functional
Ephrin type-A receptor 5 = Ephrin type-A receptor 5 (Homo sapiens, UniProt P54756); test: Inhibition of EPHA5 (unknown origin)
BaF3 = test: Antiproliferative activity against mouse BaF3 cells assessed as IL-3-induced inhibition of cell growth incubated for 40 hrs; type: functional, cell-based; conditions: BaF3, 40 h
[23] = molecular target: Serine/threonine-protein kinase PAK 2 (Homo sapiens) (UniProt Q13177); test: Inhibition of PAK2 (unknown origin) at 1 uM relative to control
[24] = molecular target: Protein-tyrosine kinase 6 (Homo sapiens) (UniProt Q13882); test: Inhibition of BRK (unknown origin) at 1 uM relative to control
[25] = molecular target: Tyrosine-protein kinase FRK (Homo sapiens) (UniProt P42685); test: Inhibition of PTK5 (unknown origin) at 1 uM relative to control
Mus musculus [26] = test: Antiarthritic activity against collagen-induced arthritis DBA/1J mouse model assessed as bone degradation by measuring lesion score in hind paw at 50 mg/kg, po administered twice daily for 14 days by histological analysis; type: functional, organism-based; conditions: time 14.0 day
Mus musculus [27] = test: Antiarthritic activity against collagen-induced arthritis DBA/1J mouse model assessed as reduction in IL-6 level in serum at 50 mg/kg, po measured for 4 hrs by luminex analysis; type: functional, organism-based
[28] = molecular target: Serine/threonine-protein kinase ULK3 (Homo sapiens) (UniProt Q6PHR2); test: Inhibition of ULK3 (unknown origin) at 1 uM relative to control
[29] = molecular target: MAP kinase-interacting serine/threonine-protein kinase 2 (Homo sapiens, UniProt Q9HBH9); test: Inhibition of MNK2 (unknown origin) at 1 uM relative to control
[30] = molecular target: Death-associated protein kinase 1 (Homo sapiens, UniProt P53355); test: Inhibition of DAPK1 (unknown origin)
[31] = molecular target: Cyclin-dependent kinase 1/cyclin B1 (Homo sapiens) (UniProt P06493+P14635); test: Inhibition of CDK1/cyclinB (unknown origin) at 1 uM relative to control; type: protein-complex assay
Rattus norvegicus [32] = test: Antiarthritic activity against collagen-induced arthritis Dark Agouti rat model assessed as reduction in clinical score at 0.1 mg/kg, po measured after day 5; type: functional, organism-based; conditions: time 5.0 day
[33] = AUC (0 to 24 hrs) in Sprague-Dawley rat at 5 mg/kg, po measured upto 24 hrs by LC-MS analysis; type: ADME, organism-based; conditions: in vivo
[34] = molecular target: Tyrosine-protein kinase BTK (Homo sapiens, UniProt Q06187); test: Inhibition of BTK (unknown origin)
Mus musculus [35] = test: Antiarthritic activity against collagen-induced arthritis DBA/1J mouse model assessed as reduction in IL-6 expression at 50 mg/kg, po measured for 4 hrs; type: functional, organism-based
[36] = molecular target: Ribosomal protein S6 kinase beta-2 (Homo sapiens) (UniProt Q9UBS0); test: Inhibition of p70S6K2 (unknown origin) at 1 uM relative to control
Sequence of Ribosomal protein S6 kinase beta-2 (Homo sapiens) (Q9UBS0 whole entry): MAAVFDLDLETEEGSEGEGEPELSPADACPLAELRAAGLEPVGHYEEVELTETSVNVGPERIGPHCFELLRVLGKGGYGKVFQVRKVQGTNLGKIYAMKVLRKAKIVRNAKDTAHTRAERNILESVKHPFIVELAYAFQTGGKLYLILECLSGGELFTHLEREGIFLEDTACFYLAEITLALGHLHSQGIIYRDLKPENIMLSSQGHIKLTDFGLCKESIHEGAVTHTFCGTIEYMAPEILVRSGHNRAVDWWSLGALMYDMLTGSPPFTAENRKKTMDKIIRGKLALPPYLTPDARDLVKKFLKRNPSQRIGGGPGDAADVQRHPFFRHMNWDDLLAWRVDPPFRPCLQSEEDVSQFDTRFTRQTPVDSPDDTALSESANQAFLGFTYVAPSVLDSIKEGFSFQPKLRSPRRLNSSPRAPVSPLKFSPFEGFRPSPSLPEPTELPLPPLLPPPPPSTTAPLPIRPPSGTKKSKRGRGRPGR

Sequence of Tyrosine-protein kinase Fer (Homo sapiens) (P16591 whole entry, looked up): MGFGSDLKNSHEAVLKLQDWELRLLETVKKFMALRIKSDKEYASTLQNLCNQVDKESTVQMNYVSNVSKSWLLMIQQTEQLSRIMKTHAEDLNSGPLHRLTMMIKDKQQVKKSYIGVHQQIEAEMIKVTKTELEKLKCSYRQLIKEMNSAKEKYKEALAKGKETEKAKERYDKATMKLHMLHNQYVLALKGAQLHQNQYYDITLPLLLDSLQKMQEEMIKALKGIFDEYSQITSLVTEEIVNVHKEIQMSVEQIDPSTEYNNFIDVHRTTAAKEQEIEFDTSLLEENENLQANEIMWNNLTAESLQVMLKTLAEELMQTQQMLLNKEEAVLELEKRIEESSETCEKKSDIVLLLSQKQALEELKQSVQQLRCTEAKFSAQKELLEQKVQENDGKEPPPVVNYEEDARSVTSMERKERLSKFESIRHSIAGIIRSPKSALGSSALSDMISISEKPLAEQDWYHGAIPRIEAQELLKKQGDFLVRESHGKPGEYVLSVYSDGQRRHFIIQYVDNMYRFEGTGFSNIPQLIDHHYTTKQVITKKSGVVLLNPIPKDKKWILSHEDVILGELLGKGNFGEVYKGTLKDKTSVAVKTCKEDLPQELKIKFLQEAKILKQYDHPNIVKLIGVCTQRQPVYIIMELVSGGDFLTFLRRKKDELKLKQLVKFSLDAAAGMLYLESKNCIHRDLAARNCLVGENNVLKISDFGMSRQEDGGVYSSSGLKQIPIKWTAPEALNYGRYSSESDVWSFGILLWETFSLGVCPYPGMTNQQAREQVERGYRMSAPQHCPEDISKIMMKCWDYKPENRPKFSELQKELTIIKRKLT
Sequence of Ephrin type-A receptor 5 (P54756 whole entry): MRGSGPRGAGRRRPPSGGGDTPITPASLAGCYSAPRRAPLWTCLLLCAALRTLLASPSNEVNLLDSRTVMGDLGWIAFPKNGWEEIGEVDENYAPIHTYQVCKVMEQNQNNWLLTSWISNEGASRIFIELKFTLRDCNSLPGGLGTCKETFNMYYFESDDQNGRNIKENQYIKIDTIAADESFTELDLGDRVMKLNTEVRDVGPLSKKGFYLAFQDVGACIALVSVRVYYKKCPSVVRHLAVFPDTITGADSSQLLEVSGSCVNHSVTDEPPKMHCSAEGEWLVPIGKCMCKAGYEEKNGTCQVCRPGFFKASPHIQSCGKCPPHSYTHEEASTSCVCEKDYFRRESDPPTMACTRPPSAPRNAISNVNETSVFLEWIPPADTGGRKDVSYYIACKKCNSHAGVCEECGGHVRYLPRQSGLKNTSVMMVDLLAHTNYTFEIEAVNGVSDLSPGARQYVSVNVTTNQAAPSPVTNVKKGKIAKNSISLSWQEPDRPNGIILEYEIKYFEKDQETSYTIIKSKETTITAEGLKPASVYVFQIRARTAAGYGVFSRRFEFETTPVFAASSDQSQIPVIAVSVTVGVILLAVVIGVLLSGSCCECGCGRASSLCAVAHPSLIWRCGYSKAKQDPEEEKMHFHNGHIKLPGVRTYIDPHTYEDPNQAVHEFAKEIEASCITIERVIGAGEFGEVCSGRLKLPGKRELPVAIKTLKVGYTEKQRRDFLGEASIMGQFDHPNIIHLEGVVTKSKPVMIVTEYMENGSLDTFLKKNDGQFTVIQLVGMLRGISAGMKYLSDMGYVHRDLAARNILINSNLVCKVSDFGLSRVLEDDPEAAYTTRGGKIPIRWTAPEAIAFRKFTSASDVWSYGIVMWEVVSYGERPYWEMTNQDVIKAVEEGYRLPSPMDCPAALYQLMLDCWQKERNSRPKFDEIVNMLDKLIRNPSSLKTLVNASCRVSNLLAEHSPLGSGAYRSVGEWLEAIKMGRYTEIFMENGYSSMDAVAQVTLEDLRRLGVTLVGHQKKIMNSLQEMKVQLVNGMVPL
Sequence of Homeodomain-interacting protein kinase 2 (Q9H2X6 whole entry): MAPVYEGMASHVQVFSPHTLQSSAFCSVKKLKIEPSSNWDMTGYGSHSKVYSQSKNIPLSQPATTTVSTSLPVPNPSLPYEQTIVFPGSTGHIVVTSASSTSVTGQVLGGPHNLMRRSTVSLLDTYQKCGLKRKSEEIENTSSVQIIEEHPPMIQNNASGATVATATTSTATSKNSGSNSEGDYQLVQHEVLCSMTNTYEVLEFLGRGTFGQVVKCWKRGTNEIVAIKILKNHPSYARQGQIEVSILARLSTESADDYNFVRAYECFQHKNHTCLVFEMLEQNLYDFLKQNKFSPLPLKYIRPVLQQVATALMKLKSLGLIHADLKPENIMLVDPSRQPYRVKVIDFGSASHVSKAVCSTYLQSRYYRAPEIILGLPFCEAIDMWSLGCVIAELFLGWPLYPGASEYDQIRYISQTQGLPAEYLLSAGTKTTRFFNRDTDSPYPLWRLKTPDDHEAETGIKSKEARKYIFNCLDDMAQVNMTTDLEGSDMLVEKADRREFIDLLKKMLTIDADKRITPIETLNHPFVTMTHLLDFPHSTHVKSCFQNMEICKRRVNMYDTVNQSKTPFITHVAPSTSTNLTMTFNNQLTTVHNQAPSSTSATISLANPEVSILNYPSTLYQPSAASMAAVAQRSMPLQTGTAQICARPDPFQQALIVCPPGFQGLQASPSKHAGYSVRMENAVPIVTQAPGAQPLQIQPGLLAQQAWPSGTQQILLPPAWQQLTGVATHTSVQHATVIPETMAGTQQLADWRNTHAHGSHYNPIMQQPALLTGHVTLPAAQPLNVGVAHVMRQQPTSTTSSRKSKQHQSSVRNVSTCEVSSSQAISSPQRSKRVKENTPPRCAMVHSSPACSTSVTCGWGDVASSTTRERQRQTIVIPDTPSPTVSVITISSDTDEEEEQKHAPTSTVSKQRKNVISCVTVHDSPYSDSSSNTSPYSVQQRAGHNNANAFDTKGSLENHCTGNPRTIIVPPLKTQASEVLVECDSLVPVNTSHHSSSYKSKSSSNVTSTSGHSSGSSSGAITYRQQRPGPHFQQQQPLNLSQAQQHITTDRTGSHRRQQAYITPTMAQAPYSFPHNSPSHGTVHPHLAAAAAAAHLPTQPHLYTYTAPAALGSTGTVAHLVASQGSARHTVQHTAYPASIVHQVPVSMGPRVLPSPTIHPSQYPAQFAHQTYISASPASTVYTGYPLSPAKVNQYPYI
Sequence of Interleukin-1 receptor-associated kinase 1 (Homo sapiens) (P51617 whole entry, looked up): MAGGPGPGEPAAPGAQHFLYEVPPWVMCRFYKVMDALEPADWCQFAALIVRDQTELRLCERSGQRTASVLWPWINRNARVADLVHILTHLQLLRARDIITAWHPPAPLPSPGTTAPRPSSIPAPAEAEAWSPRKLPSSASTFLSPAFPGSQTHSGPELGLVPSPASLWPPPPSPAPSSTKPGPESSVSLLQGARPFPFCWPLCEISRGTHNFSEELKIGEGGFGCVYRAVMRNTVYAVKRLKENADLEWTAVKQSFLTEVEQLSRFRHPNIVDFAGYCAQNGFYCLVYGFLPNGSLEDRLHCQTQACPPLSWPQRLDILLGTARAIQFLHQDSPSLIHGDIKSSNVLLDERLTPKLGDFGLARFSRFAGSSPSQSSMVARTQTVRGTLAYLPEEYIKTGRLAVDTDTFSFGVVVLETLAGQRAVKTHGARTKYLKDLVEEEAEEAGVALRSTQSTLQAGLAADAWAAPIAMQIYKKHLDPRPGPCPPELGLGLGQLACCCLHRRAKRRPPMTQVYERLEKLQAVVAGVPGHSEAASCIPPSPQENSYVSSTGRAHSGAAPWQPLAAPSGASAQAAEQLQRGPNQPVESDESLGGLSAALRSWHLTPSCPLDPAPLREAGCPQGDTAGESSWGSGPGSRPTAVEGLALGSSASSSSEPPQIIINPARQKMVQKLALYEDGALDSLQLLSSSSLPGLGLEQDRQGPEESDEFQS
Sequence of Serine/threonine-protein kinase ULK3 (Homo sapiens) (Q6PHR2 whole entry): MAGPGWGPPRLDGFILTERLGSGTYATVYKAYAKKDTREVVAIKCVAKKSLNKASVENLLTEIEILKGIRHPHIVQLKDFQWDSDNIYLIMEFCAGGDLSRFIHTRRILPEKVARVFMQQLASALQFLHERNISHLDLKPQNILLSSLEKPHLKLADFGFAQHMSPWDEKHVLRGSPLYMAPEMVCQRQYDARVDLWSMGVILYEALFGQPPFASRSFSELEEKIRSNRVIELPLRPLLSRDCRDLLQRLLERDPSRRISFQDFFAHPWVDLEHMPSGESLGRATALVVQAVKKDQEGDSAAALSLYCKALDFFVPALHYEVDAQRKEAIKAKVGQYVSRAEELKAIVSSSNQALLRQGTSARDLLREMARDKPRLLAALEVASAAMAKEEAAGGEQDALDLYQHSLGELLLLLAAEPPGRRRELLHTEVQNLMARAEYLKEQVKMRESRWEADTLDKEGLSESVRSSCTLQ
Sequence of Serine/threonine-protein kinase Nek6 (Homo sapiens) (Q9HC98 whole entry): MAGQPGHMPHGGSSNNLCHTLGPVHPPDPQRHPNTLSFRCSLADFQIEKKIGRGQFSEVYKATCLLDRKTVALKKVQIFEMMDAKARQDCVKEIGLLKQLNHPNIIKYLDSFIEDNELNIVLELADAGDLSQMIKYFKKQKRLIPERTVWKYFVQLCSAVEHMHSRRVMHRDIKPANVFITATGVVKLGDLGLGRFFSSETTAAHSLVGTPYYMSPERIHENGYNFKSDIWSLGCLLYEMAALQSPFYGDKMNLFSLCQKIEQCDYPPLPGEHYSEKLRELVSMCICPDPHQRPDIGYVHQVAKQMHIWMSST

Molecule `O=C(Nc1nc2cccc(-c3ccc(CN4CCS(=O)(=O)CC4)cc3)n2n1)C1CC1` [FILGOTINIB] has an inhibition [1] of -7%, an inhibition [2] of 2% and an inhibition [3] of -1%. For the same molecule, the inhibition [4] was -4%, the inhibition [5] was -3% and the inhibition [6] was 23%. For the same molecule, the inhibition [7] was -6%, the Activity (Mus musculus [8]) was “Active” and the IC50 [9] was over 10 µM. For the same molecule, the inhibition [10] was -2%, the inhibition [11] was -5% and the Activity (Mus musculus [12]) was 33.6 ng/mL. For the same molecule, the inhibition [13] was -2%, the inhibition [14] was -5% and the inhibition [15] was 4%. For the same molecule, the inhibition [16] was 1%, the IC50 [17] was over 10 µM and the Activity (Mus musculus [18]) was 7.8 ng/mL. For the same molecule, the Activity (Mus musculus [19]) was “inactive”, the Activity (Rattus norvegicus [20]) was “Dose-Dependent Effect” and the IC50 (Misshapen-like kinase 1) was over 10 µM. For the same molecule, the inhibition [21] was -3%, the Activity (Mus musculus [22]) was 372.4 ng/mL and the IC50 (Ephrin type-A receptor 5) was over 10 µM. It also gave an IC50 (BaF3; read-out: IC50) of 4.55 µM, an IC50 (BaF3; read-out: pIC50 (converted)) of 4.57 µM and an inhibition [23] of 3%. The inhibition [24] was -2%, the inhibition [25] was -6% and the Activity (Mus musculus [26]) was “Active”. The Activity (Mus musculus [27]) was “Active”, the inhibition [28] was 4% and the inhibition [29] was -10%. The IC50 [30] was over 10 µM, the inhibition [31] was 7% and the Activity (Rattus norvegicus [32]) was “Active”. The AUC [33] was 1.68 µg·h/mL, the IC50 [34] was over 10 µM and the Activity (Mus musculus [35]) was “Active”. For the same molecule, the inhibition [36] was -6%.
